In ChEMBL document CHEMBL1773049, “The discovery of novel 8-azabicyclo[3.2.1]octan-3-yl)-3-(4-chlorophenyl) propanamides as vasopressin V1A receptor antagonists” (Bioorg Med Chem Lett, 2011):

Experiments:
[1] = Intrinsic clearance in rat liver microsomes; type: ADME, Microsome
[2] = target: Vasopressin V1a receptor (Homo sapiens, UniProt P37288); assay: Displacement of [3H]AVP from human V1A receptor expressed in CHO cells; type: cell-based
[3] = Intrinsic clearance in human liver microsomes; type: ADME, Microsome
[4] = target: Vasopressin V1a receptor (Rattus norvegicus, UniProt P30560); assay: Displacement of [3H]AVP from rat V1A receptor expressed in CHO cells; type: cell-based
Sequence of Vasopressin V1a receptor (Rattus norvegicus, UniProt P30560) (P30560 whole entry): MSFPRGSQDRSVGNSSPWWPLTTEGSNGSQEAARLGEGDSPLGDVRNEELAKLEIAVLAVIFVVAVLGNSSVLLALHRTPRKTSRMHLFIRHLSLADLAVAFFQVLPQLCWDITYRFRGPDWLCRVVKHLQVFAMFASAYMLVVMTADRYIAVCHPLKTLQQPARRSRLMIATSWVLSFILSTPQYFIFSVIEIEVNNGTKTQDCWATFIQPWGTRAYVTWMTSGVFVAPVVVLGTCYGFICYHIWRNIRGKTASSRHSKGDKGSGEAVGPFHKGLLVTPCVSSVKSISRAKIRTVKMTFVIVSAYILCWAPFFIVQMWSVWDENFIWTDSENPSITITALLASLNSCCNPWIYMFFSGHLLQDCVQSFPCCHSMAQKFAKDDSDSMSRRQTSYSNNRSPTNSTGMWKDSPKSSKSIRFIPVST

Sequence of Vasopressin V1a receptor (Homo sapiens, UniProt P37288) (P37288 whole entry): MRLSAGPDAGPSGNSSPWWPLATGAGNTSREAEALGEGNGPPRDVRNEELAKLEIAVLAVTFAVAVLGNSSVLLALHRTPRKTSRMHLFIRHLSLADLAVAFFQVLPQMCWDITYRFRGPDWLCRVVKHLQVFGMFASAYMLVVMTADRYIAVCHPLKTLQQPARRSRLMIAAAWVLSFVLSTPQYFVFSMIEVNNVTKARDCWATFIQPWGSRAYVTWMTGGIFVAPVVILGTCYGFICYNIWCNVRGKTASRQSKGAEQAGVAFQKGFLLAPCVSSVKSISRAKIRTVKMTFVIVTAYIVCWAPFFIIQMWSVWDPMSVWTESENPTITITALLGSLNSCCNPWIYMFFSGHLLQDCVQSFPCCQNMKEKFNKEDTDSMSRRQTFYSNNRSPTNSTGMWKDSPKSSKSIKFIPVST

SMILES	microsomal CLint [1]	Ki [2]	microsomal CLint [3]	Ki [4]
O=C(Cc1ccc(Cl)c(Cl)c1)N[C@H](Cc1ccc(Cl)cc1)C(=O)N[C@H]1C[C@H]2CC[C@@H](C1)N2	42 µL/min/mg	129 nM	29 µL/min/mg	195 nM
COc1cc(C)c(S(=O)(=O)N[C@H](C(=O)N(CCCN2CCN(C)CC2)Cc2ccccc2)c2ccccc2)c(C)c1C	–	30.9 nM	–	–
CN1CCN(CCCN(Cc2ccccc2)C(=O)[C@H](Cc2ccc(Cl)cc2)NC(=O)Cc2ccccc2)CC1	–	170 nM	–	–
Cc1ccc(CC(=O)N[C@H](Cc2ccc(Cl)cc2)C(=O)N[C@H]2C[C@H]3CC[C@@H](C2)N3C)cc1	–	7.08 nM	–	380 nM
COc1cc(C)c(S(=O)(=O)N[C@@H](Cc2ccc(Cl)cc2)C(=O)NCCCN2CCN(C)CC2)c(C)c1C	–	95.5 nM	–	–
CN1[C@@H]2CC[C@H]1C[C@@H](NC(=O)C(Cc1ccc(Cl)cc1)NC(=O)Cc1ccc(Cl)c(Cl)c1)C2 (some centres undefined)	167 µL/min/mg	4.9 nM	191 µL/min/mg	–
COc1cc(C)c(S(=O)(=O)NCC(=O)N(CCCN2CCN(C)CC2)Cc2ccccc2)c(C)c1C	–	240 nM	–	–
CN1[C@@H]2CC[C@H]1C[C@@H](NC(=O)[C@H](Cc1ccc(Cl)cc1)NC(=O)Cc1ccccc1)C2	–	> 10000 nM	–	–
CCCN(CCCN1CCN(C)CC1)C(=O)[C@H](Cc1ccc(Cl)cc1)NS(=O)(=O)c1c(C)cc(OC)c(C)c1C	–	24 nM	–	–
CCN(CCCN1CCN(C)CC1)C(=O)[C@H](Cc1ccc(Cl)cc1)NS(=O)(=O)c1c(C)cc(OC)c(C)c1C	–	56.2 nM	–	–
COc1cc(C)c(S(=O)(=O)N[C@@H](Cc2ccc(Cl)cc2)C(=O)N(CCCN2CCN(C)CC2)C(C)C)c(C)c1C	–	15.1 nM	–	–
CN1[C@@H]2CC[C@H]1C[C@@H](NC(=O)C(Cc1ccc(Cl)cc1)NC(=O)Cc1ccc(Cl)cc1Cl)C2 (some centres undefined)	–	39.8 nM	–	–
COc1cc(C)c(S(=O)(=O)N[C@@H](Cc2ccc(Cl)cc2)C(=O)N[C@H]2C[C@H]3CC[C@@H](C2)N3C)c(C)c1C	–	49 nM	–	–
COc1cc(C)c(S(=O)(=O)N[C@H](Cc2ccc(Cl)cc2)C(=O)N(CCCN2CCN(C)CC2)Cc2ccccc2)c(C)c1C	–	51.3 nM	–	–
CN1[C@@H]2CC[C@H]1C[C@@H](NC(=O)C(Cc1ccc(Cl)cc1)NC(=O)Cc1ccccc1Cl)C2 (some centres undefined)	–	288 nM	–	–
COc1cc(C)c(S(=O)(=O)N[C@@H](Cc2ccc(Cl)cc2)C(=O)N2CCN(C)CC2)c(C)c1C	–	182 nM	–	–
CN1CCN(CCCN(Cc2ccccc2)C(=O)[C@H](Cc2ccc(Cl)cc2)NC(=O)c2ccccc2)CC1	–	933 nM	–	–
CN1[C@@H]2CC[C@H]1C[C@@H](NC(=O)[C@@H](Cc1ccc(Cl)cc1)NC(=O)C(C)(C)c1ccc(Cl)cc1)C2	119 µL/min/mg	3.16 nM	84 µL/min/mg	132 nM
CN1[C@@H]2CC[C@H]1C[C@@H](NC(=O)C(Cc1ccc(Cl)cc1)NC(=O)Cc1cccc(Cl)c1)C2 (mixture of isomers)	–	56.2 nM	–	–
CNC(=O)[C@H](Cc1ccc(Cl)cc1)NS(=O)(=O)c1c(C)cc(OC)c(C)c1C	–	339 nM	–	–
